Experimental data published in article PMC5605456 (Biochemistry, 2017).
Read-outs that look alike come from different tables or passages of the source.

How the values were obtained:
CmlI [1] = target: T1, CmlI (Streptomyces venezuelae, UniProt F2RB83); assay: stopped-flow at […] nm, hyperbolic fit of reciprocal relaxation times; format: binding
CmlI [2] = target: T1, CmlI; assay: as above; format: binding; remark: listed apart in the source

T1 sequence (F2RB83 whole entry): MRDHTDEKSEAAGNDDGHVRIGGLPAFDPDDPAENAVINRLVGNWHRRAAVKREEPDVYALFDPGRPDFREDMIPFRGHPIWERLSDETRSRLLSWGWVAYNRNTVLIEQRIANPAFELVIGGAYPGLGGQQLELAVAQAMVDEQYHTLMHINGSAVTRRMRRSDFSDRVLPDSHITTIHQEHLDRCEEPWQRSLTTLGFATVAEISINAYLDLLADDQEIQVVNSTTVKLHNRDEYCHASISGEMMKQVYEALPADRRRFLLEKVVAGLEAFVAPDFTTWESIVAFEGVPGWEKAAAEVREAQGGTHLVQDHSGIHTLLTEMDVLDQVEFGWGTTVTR

| Kd (CmlI [1]) [mM] | Compound | Kd (CmlI [2]) [mM] |
| --- | --- | --- |
| 1.1 ± 0.05 | O=C(N[C@H](CO)[C@H](O)c1ccc(NO)cc1)C(Cl)Cl [NH(OH)-CAM] | – |
| – | Nc1ccc([C@@H](O)[C@@H](CO)NC(=O)C(Cl)Cl)cc1 [NH2-CAM, D-threo-1-(4-aminophenyl)-2-dichloroacetylamino-1,3-propanediol] | 8.5 ± 1.5 |
| – | O=Nc1ccc([C@@H](O)[C@@H](CO)NC(=O)C(Cl)Cl)cc1 [NO-CAM] | 8.6 ± 1 |
